# Assay results taken from ChEMBL document CHEMBL2095176, “GSK Tuberculosis Screening Data”.
# Tested on: Mycobacterium tuberculosis variant bovis BCG
# Test: microbe, parasite or virus in culture
# Assay type: functional
row,Compound,MIC90
1,Cc1cc(/C=C/c2cccc(C(=O)O)c2)cc(Cl)c1OC1CCN(C)C1 (configuration not stated),8 µM
2,Cc1ccc(SCCC(=O)Nc2nc(-c3ccccn3)cs2)cc1,4.4 µM
3,Br.CC(C)(C)c1ccccc1OCCCON1C(=N)N=C(N)NC1(C)C,1.8 µM
4,COc1cc(NC(=O)c2sc(-c3ccc(Cl)cc3)cc2/N=C2/CCCCN2C)ccc1OCCN1CCCC1,6 µM
5,Clc1cc(N2CCNCC2)cc(Cl)c1OCc1ccccc1,2.2 µM
6,Cc1csc(NC(=O)CSc2nc(C)c(C)n2Cc2ccc(Cl)cc2)c1C#N,0.9 µM
7,CN(Cc1ccccc1)c1ccc2nnc(-c3ccccc3)n2n1,9.9 µM
8,Cc1[nH]n2c(=O)cc(-c3ccccc3Cl)nc2c1-c1ccccc1,8.1 µM
9,O=C(CSc1nc(-c2ccccc2)cs1)NNC(=O)c1cccs1,9.8 µM
10,N[C@H]1CC[C@H](NCc2ccc(O)c(C(=O)NCc3ccc(Cl)c(Cl)c3)c2)CC1,8.5 µM
11,O=C(O)COCC(=O)NNC(=O)c1ccncc1,2.3 µM
12,NC(=O)c1cnc2ccc(S(=O)(=O)c3ccccc3)cc2c1Nc1ccc(O)c(F)c1,7.5 µM
13,Cc1cc(Oc2cccc(CN3CCCC3)c2)nc(NCCc2ccccc2)n1,8.9 µM
14,COc1ccc(C(=O)Nc2nnc(-c3ccc4c(c3)CCCC4)o2)cc1,3 µM
15,Cc1ccc(Cl)c2sc(N(CCN(C)C)C(=O)CS(=O)(=O)c3ccc(F)cc3)nc12,6.4 µM
16,O=C(Nc1nc(-c2ccccn2)cs1)c1cc2c(F)cccc2s1,2.1 µM
17,O=C(c1ccc(-c2cccc(OCCN(CCO)C3CCCCC3)c2)cc1)N1CCCC1,6.5 µM
18,Cc1nn(CC(C)C)c(Cl)c1C(=O)Nc1nc(-c2ccccn2)cs1,10 µM
19,COc1ccccc1NC(=O)CN(Cc1ccco1)C(=O)c1cccc(-n2cnnn2)c1,7.7 µM
20,Cc1cc(C)cc(Oc2c(C(C)C)c(=O)[nH]c(=O)n2Cc2cc(N)nc(F)c2)c1,9.8 µM
21,O=C(Nc1nnc(-c2ccc3c(c2)CCCC3)o1)c1ccc(Cl)s1,3.8 µM
22,O=C(Nc1nc(-c2cccnc2)cs1)c1ccc(Br)s1,1.4 µM
23,O=C(OCc1c(F)cccc1Cl)c1ccc(-n2ncc(Cl)c(Cl)c2=O)cc1,3.7 µM

row,Compound,MIC90
1,CCCCc1cc(OC)c(C(=O)Nc2cccc3c2CCN(C)C3)cc1Cl,6.4 µM
2,CCCCc1ccc(C(=O)Nc2nccc3ccccc23)nc1,7.2 µM
3,Br.CC1(C)N=C(N)N=C(N)N1OCCc1ccc2ccccc2c1,8.8 µM
4,O=C(Nc1nc(-c2ccccn2)cs1)c1ccc2c(c1)OCO2,3 µM
5,CC(C)(C)c1ccc(C(=O)Nc2nnc(-c3ccco3)o2)cc1,4.3 µM
6,CCc1ccc([C@@H]2C[C@H](C(F)(F)F)n3ncc(C(=O)NCc4ccc(OC)cc4)c3N2)cc1,2.7 µM
7,O=C(NC12CC3CC(CC(C3)C1)C2)c1cc2cc(Cl)ccc2[nH]1,0.8 µM
8,COc1cccc(C(=O)N(Cc2cccnc2)Cc2cc3c(C)cc(C)cc3nc2Cl)c1,3.1 µM
9,CC(=O)Nc1cc(C(=O)Nc2ccc(C3=NCCN3)cc2)ccc1C(=O)Nc1ccc(C2=NCCN2)cc1,1.6 µM
10,O=C(Nc1nc(-c2ccccn2)cs1)c1cccc(-n2cnnn2)c1,8.5 µM
11,C[C@@H]1CN(c2ccc(C#N)c(C(F)(F)F)c2)CCN1,4.2 µM
12,O=C(C=Cc1ccccc1)N1CCN(Cc2ccc3c(c2)OCO3)CC1,2.9 µM
13,CN(C)C1CCN(C(=O)c2csc(-c3cccc(Cl)c3Cl)n2)C1 (configuration not stated),8.5 µM
14,CCOC(=O)c1csc(-c2ccccc2NC(=O)OCC2CCNCC2)n1,9.3 µM
15,Cc1cc(N2CCCN(C)CC2)nc(Nc2cc(F)cc(F)c2)n1,3.4 µM
16,Cc1nn(Cc2ccccc2)c(Cl)c1C(=O)NC1CCCCCC1,3.2 µM
17,Cc1ccc(C(=O)Nc2nnc(-c3ccccc3Cl)o2)cc1,6.1 µM
18,CC(Sc1nc2ccccc2[nH]1)C(=O)NNC(=O)c1ccncc1 (configuration not stated),1.6 µM
19,Cc1cc(CN2CCC3(CC2)OCCc2sccc23)oc1C,2.1 µM
20,CSc1cccc(-c2nnc(NC(=O)c3ccc4c(c3)CCCC4)o2)c1,7.2 µM
21,CSc1cccc(C(=O)Nc2nc(-c3ccccn3)cs2)c1,4.6 µM
22,CCOc1ccc(OCc2ccc(C(=O)NNC(=O)c3ccc([N+](=O)[O-])o3)cc2)cc1,1.6 µM
23,COc1ccc(Nc2ccccc2N)cc1,1.1 µM

row,Compound,MIC90
1,c1cc(Oc2ccnc(N3CCC4(CCNC4)CC3)n2)c2cc[nH]c2c1,7.5 µM
2,O=C(COc1ccccc1)N1CCN(c2cnc3ccccc3n2)CC1,9.3 µM
3,CCc1cc(=O)[nH]c(-n2nc(C)cc2NC(=O)c2ccc(C(C)(C)C)cc2)n1,0.8 µM
4,c1ccc(-c2nnc(Sc3ccnc(N4CCN(c5ccncc5)CC4)n3)n2CCCN2CCOCC2)nc1,4.6 µM
5,Clc1ccc2c(N3CCNCC3)ccnc2c1,6.5 µM
6,Cc1ccc(C)c2nc(N3CCN(C)CC3)c(C#N)cc12,9.4 µM
7,O=C(Nc1ccc(-c2nc3ccccc3o2)cc1)c1cccnc1,4.5 µM
8,C=CCNCCS(=O)(=O)c1cccc(Nc2ccc(-c3ccc(OC)nc3)cn2)c1,1.3 µM
9,Cc1cc2ncn(-c3nccc(N4CCN(Cc5ccncc5)CC4)n3)c2cc1C,2.8 µM
10,O=C(Nc1nc(-c2ccccn2)cs1)c1ccc(Oc2ccccc2)cc1,7 µM
11,COc1cc(OC)cc(C(=O)Nc2nc(-c3ccccn3)cs2)c1,3.4 µM
12,CCn1c(-c2nonc2N)nc2c(C#Cc3ccccc3)ncc(OCCCCN)c21,8.1 µM
13,c1coc(-c2nnc(Sc3ccnc(N4CCN(c5ccncc5)CC4)n3)n2CCN2CCOCC2)c1,5.3 µM
14,Brc1ccc2cc(C3=NCCCO3)[nH]c2c1,7.1 µM
15,c1ccc(-c2nnc(Sc3ccnc(N4CCN(c5ccncc5)CC4)n3)n2CCCN2CCOCC2)cc1,6.3 µM
16,COc1ccc(-c2nnc(NC(=O)c3ccc(Br)s3)o2)cc1,7.6 µM
17,Oc1ccc(CCNc2nc(NCc3cccc4ccccc34)nc(NC3CCNCC3)n2)cc1,10 µM
18,Cc1cc(=O)[nH]c(-n2nc(C)cc2NC(=O)COc2ccccc2C)n1,6.9 µM
19,COC(=O)COc1ccc(CCn2nnc(-c3ccc(C(F)(F)F)cc3)n2)cc1,7.6 µM
20,Br.CC1(C)NC(N)=NC(=N)N1OCCCOc1ccc(Cl)cc1Cl,4.5 µM
21,Cc1n[nH]c(C)c1S(=O)(=O)Nc1ccc2c[nH]nc2c1,6.2 µM
22,O=C(Nc1nc(-c2ccccn2)cs1)c1cc2c(s1)CCCC2,5.5 µM
23,CCCCNC(=O)N1CCN(Cc2cccc3ccccc23)CC1,8.8 µM

row,Compound,MIC90
1,Nc1nc(SCc2cccc(F)c2F)nc2[nH]c(=O)cnc12,4.4 µM
2,CN1CCN(c2cc(-c3ccc(F)cc3)nc(-c3ccncc3)n2)CC1,7.9 µM
3,CC(C)Oc1ccc(NCC(=O)Nc2ccc(F)cc2)cc1,6.7 µM
4,O=C(Nc1ccc(F)c(Cl)c1)c1cnc(N2CCN(c3ncccn3)CC2)c2ccccc12,7.5 µM
5,COCc1nc(N2CCCNCC2)c2c(C)nn(-c3cccc(Cl)c3)c2n1,0.4 µM
6,O=C(Nc1nc2c(F)cc(F)cc2s1)C1CCCN1S(=O)(=O)c1cccs1 (configuration not stated),6.3 µM
7,Cc1ccc2nc(N(CCCn3ccnc3)C(=O)C=Cc3cccs3)sc2c1,8.2 µM
8,O=C(/C=C/c1ccc(OC(F)(F)F)cc1)NC1CCN(c2ncccc2C(F)(F)F)CC1,3.8 µM
9,COc1ccc2nc(C)cc(OCC(=O)NCc3ccccc3)c2c1,3.6 µM
10,Cc1cc(CN2CC[C@H](NC(=O)c3ccc(Cl)c(Cl)c3)C2)ccc1OCCN1CCNCC1,7.1 µM
11,O=C(Cc1ccc(Cl)c(Cl)c1)Nc1nc(-c2ccccn2)cs1,3.2 µM
12,O=C(Nc1nc(-c2ccccn2)cs1)c1ccc(-c2ccccc2F)o1,5.2 µM
13,O=C(Nc1nnc(-c2ccccc2)o1)c1ccc(Cl)s1,9.8 µM
14,CCCc1cc(-c2nc(-c3ccc(OC)c(OC)c3)cs2)ccn1,6.7 µM
15,Cl.O=C(c1ccco1)N(CCCn1ccnc1)c1nc2c(Cl)cccc2s1,7.2 µM
16,O=C(Nc1nnc(-c2ccc(F)cc2)o1)c1ccc(Cl)cc1,6.9 µM
17,CC(C)CCN(c1ccc(C#N)c(Cl)c1)[C@H]1CCNC1,2 µM
18,O=C(Nc1ccc(C(F)(F)F)cc1)NC1CCCCC1,4.3 µM
19,Cc1cccc2nc(C(=O)Nc3nc(CN4CCC(C)CC4)cs3)cn12,2 µM
20,Nc1ccc(C(=O)C(=O)c2ccc(N)cc2)cc1,0.4 µM
21,Cc1cc(CN2CCCN(c3ncc(-c4ccsc4)c4nc(C(F)(F)F)ccc34)CC2)no1,9.8 µM
22,Cc1cc(/C=C/c2cccc(C(=O)O)c2)cc(Cl)c1OC[C@@H]1CCCN1C,9.5 µM
23,COc1ccc(-c2ccc(Nc3cccc(S(=O)(=O)CCN(C)CCc4ccccn4)c3)nc2)cn1,7.3 µM

row,Compound,MIC90
1,N=C(N)c1ccc(CCN2CCC(c3nc(COCC(F)(F)F)c(-c4ccc(F)cc4)o3)CC2)cc1.O=C(O)C(F)(F)F.O=C(O)C(F)(F)F,8.2 µM
2,Cc1nc2ccccn2c1C(=O)NCc1ccccc1,3.4 µM
3,Cn1cc(NC(=O)c2cc(NC(=O)CNC(=N)N)cn2C)cc1C(=O)NCCC(=N)N [NETROPSIN CHLORIDE],3.6 µM
4,Cc1csc2nc(-c3ccccn3)nc(Nc3ccncn3)c12.O=C(O)C(F)(F)F,1.3 µM
5,N=c1n(CCC2CCCCC2)nnn1Cc1ccccc1,6.1 µM
6,c1ccc(-c2ccc(CNCCn3ccnc3-c3ccccc3)cc2)cc1,9.3 µM
7,N[C@@H]1CCN(c2nc(-c3ccccc3)nc3ccccc23)C1,1.4 µM
8,O=C(Nc1cccc2cccnc12)c1cnccn1,9.4 µM
9,CCCNc1cc(-c2ccccc2)nc(-n2nc(C)cc2C)n1,5 µM
10,COc1ccc(CCNC(=O)c2nc(-c3ccc(OC)c(OC)c3)no2)cc1OC,1.5 µM
11,Brc1ccc(-c2noc(C3CCCNC3)n2)cc1 (configuration not stated),6.2 µM
12,Cc1cc(=O)[nH]c(-n2nc(C)cc2NC(=O)C2(c3ccc(Cl)cc3)CCCC2)n1,1.3 µM
13,CC(C)n1ncc2c(C(=O)NCC(c3ccco3)N3CCCC3)cc(-c3ccccc3)nc21 (configuration not stated),3.6 µM
14,CCN(Cc1ccc2c(c1)OCO2)C(=O)CSc1nc(NC)c2ccccc2n1,3.3 µM
15,CCOc1cc(CC)c(Br)cc1C(=O)Nc1cccc2c1CCN(C)C2,4.6 µM
16,CCc1c(C)nc(-c2cccc(C(F)(F)F)c2)nc1N1CCNCC1,8.6 µM
17,O=C(c1ccc(-c2cccc(OCCN3CCC(c4ccc(F)cc4)CC3)c2)cc1)N1CCCC1,4.4 µM
18,O=C(Cc1ccc(Cl)cc1)Nc1nc(-c2ccccn2)cs1,4.3 µM
19,Cc1sc2nc(C3CC3)n(C3CCN(CC(=O)N4CCCC4)CC3)c(=O)c2c1C,5 µM
20,O=C(COc1ccc2c(c1)CCC2)NNC(=O)c1cccs1,4.2 µM
